In patent EP3744709B1, “NEW CRYSTAL FORM OF TEMBOTRIONE” (ANHUI JIUYI AGRICULTURE CO., LTD., priority 2018, dated 2020):
In brackets after ≈: the same amount, converted by molar mass.

Key:
[1] = Dissolution rate test (suspension in methanol/water with temperature cycling, decomposition after 14 days); assay type: physicochemical; conditions: suspended in methanol : water 1 : 5 (volume), 10-30° C, 14 days later; for decomposition rate: temperature periodically changed at 0.5K/min
Experimental: Further, in the present disclosure, the dissolution rate of crystal from D of tembotrione was tested as following: the crystal form D of tembotrione was suspended in a mixture of methanol and water (the volume ratio of methanol : water was 1 : 5) at a temperature of 10-30° C, and the temperature was changed at a rate of 0.5K/min. […] Crystal forms A, B, C and D of tembotrione were suspended in a mixture of methanol and water (the volume ratio of methanol to water was 1 : 5) at a temperature of 10-30° C, and the temperature was periodically changed at a rate of 0.5K/min.

physchem = assay type: physicochemical; conditions: for Solubility, water: pH 4; for solubility: 25 °C, thermodynamic from solid
Experimental: At 25±2°C, 100mL (which may be scaled down) solvent was added in a beaker. A certain mass of crystal forms A, B, C and D of tembotrione were weighted (to ensure insufficient dissolution, tembotrione may be weighted more than once if necessary and the total mass was calculated). The solute was gradually added, continuously stirred and sufficiently dissolved until the solution was exactly saturated (if there was solid precipitation, it was filtrated out and dried, and put back to the undissolved solid). Total mass of the undissolved solid was weighted to calculate the mass of the dissolved solid in 100mL (100g) solvent, i.e., the solubility of the solid in the solvent at the temperature. In the present disclosure, solubility of crystal forms A, B, C and D of tembotrione in several common solvents were tested, and the results were shown in Table 2. Table 2 Solubility of crystal forms A, B, C and D of tembotrione in different solvents

Compound	dissolution rate ([1]; 0.5K/min)	decomposition rate [1] [%]	Solubility, methanol (physchem) [µg/mL]	Solubility, toluene (physchem) [µg/mL]	Solubility, water (physchem) [µg/mL]	solubility (physchem; organic solvent or mixture, methanol) [µg/mL]	solubility (physchem; organic solvent or mixture, toluene) [µg/mL]	solubility (physchem; pH 4, aqueous buffer, water) [µg/mL]
CS(=O)(=O)c1ccc(C(=O)C2C(=O)CCCC2=O)c(Cl)c1COCC(F)(F)F [crystal form D, 2-[2-chloro-4-methylsulfonyl-3-(2,2,2-trifluoroethoxymethyl)benzoyl]cyclohexane-1,3-dione]	slow	0.06	8200 (≈ 18.6 mM)	75700 (≈ 172 mM)	220 (≈ 0.499 mM)	–	–	–
CS(=O)(=O)c1ccc(C(=O)C2C(=O)CCCC2=O)c(Cl)c1COCC(F)(F)F [crystal form A, 2-[2-chloro-4-methylsulfonyl-3-(2,2,2-trifluoroethoxymethyl)benzoyl]cyclohexane-1,3-dione]	–	0.1	–	–	–	8600 (≈ 19.5 mM)	80000 (≈ 181 mM)	260 (≈ 0.59 mM)
CS(=O)(=O)c1ccc(C(=O)C2C(=O)CCCC2=O)c(Cl)c1COCC(F)(F)F [crystal form C, 2-[2-chloro-4-methylsulfonyl-3-(2,2,2-trifluoroethoxymethyl)benzoyl]cyclohexane-1,3-dione]	–	0.15	8500 (≈ 19.3 mM)	80200 (≈ 182 mM)	250 (≈ 0.567 mM)	–	–	–
CS(=O)(=O)c1ccc(C(=O)C2C(=O)CCCC2=O)c(Cl)c1COCC(F)(F)F [crystal form B, 2-[2-chloro-4-methylsulfonyl-3-(2,2,2-trifluoroethoxymethyl)benzoyl]cyclohexane-1,3-dione]	–	0.4	8800 (≈ 20 mM)	81000 (≈ 184 mM)	280 (≈ 0.635 mM)	–	–	–
